Assay results published in patent EP1759703A1, “IMMUNISTIMULATIVE AND INTERFERONOGENOUS AGENT” (Akciju Sabiedriba "Olainfarm", priority 2004, dated 2006).
Where a name gives a salt, the structure may show the parent alone. Read-outs that look alike come from different tables or passages of the source.

How the values were obtained:
[1] = Solubility (qualitative); format: physicochemical
[2] = tested on: natural killers (NK-cells); test: NK-cell functional activity test (lysis of K-562 target cells, fluorescent tag); format: cell-based; conditions: Homo sapiens, ratio of treated to untreated NK-cells activity, read-out: Relative value of change of NK-activity over DMAAM compounds
Description: Immunostimulating activity. Determination of the effect of claimed compounds on functional activity of immunocomptent human cells.
Immunocompetent cells - natural killers (NK-cells) - relate to the system of natural human body resistance. Identification of the status of this immune system link gives important information about the state of the body immune status. To assess the state of this immune system link depending on the presence of studied compounds a functional test was used to determine the NK-cells capacity to expose to lysis the target cells of tumor myeloblast culture K-562, the identification of which was implemented using a fluorescent tag. NK-cells activity was identified in accordance with the number of the target cells K-562 "killed" by them which were evaluated based on the intensity of fluorescent glowing in the area characteristic for killed cells and against control results (i.e. when NK-cells are absent).
The influence level of the studied drugs on NK-cells activity was assessed based on the value of the NK-cells activity ratio when treated with these medications to the activity of untreated NK-cells in the lysis process of target cells of the test culture, line K-562.
To select medication doses and concentrations while studying their activity, their minimal toxic dose against target cells and mononuclear cells of peripheral blood was preliminarily measured.
This defines a considerable immunostimulating effect of offered substances.
In addition immunostimulating effect mainly occurs in polymeric compounds (PVASA - DMAAM, VA - VASA - DMAAM, VP - VASA - DMAAM), and with an increase of drug concentration their stimulating impact on NK-cells activity enhances. Table 1. Change of NK-cells activity over 3.5-dimethyl-1-adamantylamine.

[3] = tested on: white mice of both sexes, line "Balb"; test: Acute toxicity, single oral administration, mice; format: in vivo
Procedure: The toxicity level of claimed compounds was assessed according to a general index of acute toxicity - average fatal dose of LD50. The study was held with a single oral administration of the medication to white mice of both sexes, line "Balb", weight 18 - 20 g, and to white rats, line "Vistar", weight 130 - 250 g (female) and 225 - 370 g (male). The medications were administered to mice in the dose ranging from 25 to 1100 mg/kg, and to rats in the range of 480 - 2315 mg/kg.

[4] = tested on: mononuclear cells of peripheral blood (NK-cells); format: cell-based, human; conditions: IU of interferon antiviral activity as regards the virus of vesicular stomatitis

CC12CC3CC(C)(C1)CC(N)(C3)C2 [3.5-dimethyl-1-adamantylamine]
solubility in water [1]: insoluble in water

CC12CC3CC(C)(C1)CC(N)(C3)C2 [HC - DMAAM, hydrochloride 3.5-dimethyl-1-adamantylamine]
fold induction at 2 µg/mL ([2]; K562, concentration 2 mcg/ml (as calculated per DMAAM)): 1
fold induction at 10 µg/mL ([2]; K562, concentration 10 mcg/ml (as calculated per DMAAM)): 1.2
fold induction at 50 µg/mL ([2]; K562, concentration 50 mcg/ml (as calculated per DMAAM)): 1.6
LD50 [3]: 363 mg/kg
Interferon induction activity of NK-cells ([4]; concentration 2 mcg/ml (as calculated per DMAAM)): 5.77 IU/ml
Interferon induction activity of NK-cells ([4]; concentration 10 mcg/ml (as calculated per DMAAM)): 13.00 IU/ml
Interferon induction activity of NK-cells ([4]; concentration 50 mcg/ml (as calculated per DMAAM)): 14.46 IU/ml
